Reference: patent US10016376B2, “Composition for alleviating nephrotoxicity caused by immunosuppressive drug, comprising metformin, and composition for preventing or treating immune disease, comprising the same” (THE CATHOLIC UNIVERSITY OF KOREA INDUSTRY-ACADEMIC …, priority 2014, dated 2018)

Columns and labels:
[1] = blood concentration of FK506 in whole blood (LC/MS/MS); format: in vivo; conditions: Sprague-Dawley, rat, subcutaneous; rats, whole blood after 4 weeks; FK506 1.5 mg/kg s.c., with or without metformin 250 mg/kg oral
Method: Thereafter, a blood concentration of FK506 in the collected whole blood was measured using a mass spectrometer (API 3000 LC/MS/MS, Applied Biocystem, Foster City, Calif.).

[2] = test system: allogeneic reactive T cells; experiment: mixed lymphocyte reaction (MLR), [3H]-thymidine uptake; format: cell-based, Balb/c; conditions: vs untreated Allo control
Method: To examine an immunomodulatory effect when T cells were co-treated with metformin and FK506 under in vitro allo-response conditions, an effect of metformin and FK506 on the proliferation of allogeneic reactive T cells was examined using a mixed lymphocyte culture method (i.e., a mixed lymphocyte reaction (MLR)) (FIG. 3). […] In this case, the T cells were treated separately or together with metformin (200 μM) or FK506 (1 nM or 100 nM) according to the experimental conditions, and then cultured for 3 days to stimulate an allogeneic response. On the last day of culture, [^3H]-thymidine was added, and the T cells were additionally cultured for 18 hours. Then, a level of [^3H]-thymidine uptake was measured using a liquid scintillation counter (Beckman, USA), and expressed as a cpm value. The statistical analysis was carried out using a Graph prism (t-test, ANOVA), and the statistical significance was p<0.05.

IFN-γ = experiment: ELISA of IFN-γ secreted by allogeneic reactive T cells in mixed lymphocyte culture; format: cell-based, Balb/c; conditions: metformin 200 μM, 3 days
Method: (§1) To examine an effect of metformin and FK506 on the secretion of inflammatory cytokines by allogeneic reactive T cells, the allogeneic reactive T cells were treated with metformin (200 μM) or FK506 (1 nM or 100 nM) according to the experimental conditions, and then cultured for 3 days under the same in vitro allo-response conditions as in <Example 2>. Thereafter, levels of IFN-γ and IL-17 secreted by the T cells in the resulting culture broth were measured using ELISA (FIG. 5). The statistical analysis was carried out using a Graph prism (t-test, ANOVA), and the statistical significance was p<0.05. […] Thereafter, levels of IFN-γ and IL-17 secreted by the T cells in the resulting culture broth were measured using ELISA (FIG. 6). The statistical analysis was carried out using a Graph prism (t-test, ANOVA), and the statistical significance was p<0.05.

IL-17 = experiment: ELISA of IL-17 secreted by allogeneic reactive T cells in mixed lymphocyte culture; format: cell-based, Balb/c; conditions: metformin 200 μM, 3 days
Method: as §1

Treg cells = experiment: flow cytometry of Treg activity under anti-CD3 T cell activation conditions; format: cell-based, C57BL/6 mice; conditions: 3 days; for Treg activity (ratio of Foxp3+CD25+ cells to CD4+ T cells): metformin 200 μM, FK506 100 nM, anti-CD3 1 μg/ml
Method: An effect of metformin and FK506 on the activity of Treg cells under T cell activation conditions (anti-CD3 conditions) was examined (FIGS. 8A and 8B). Splenocytes obtained from normal C57BL/6 mice were seeded in a 24-well plate at a density of 1×10^6 cells/ml, treated with metformin (200 μM) or FK506 (100 nM) according to the experimental conditions, and then cultured for 3 days under anti-CD3 activation conditions (1 μg/ml). For the analysis using a flow cytometer, the cells were treated with an anti-CD4-percp antibody and an anti-CD25-APC antibody, reacted at 4° C. for 30 minutes, permeabilized, reacted with an anti-Foxp3-PE antibody, and then analyzed using the flow cytometer. To analyze the Treg activity, cells expressing a CD4+CD25+Foxp3 marker were gated and analyzed. For the results, the ratio of Foxp3+CD25+ cells to the whole cultured CD4+ T cells was plotted on a bar graph. The statistical analysis was carried out using a Graph prism (t-test, ANOVA), and the statistical significance was p<0.05.

TNF-α = TNF-α secreted by LPS-stimulated splenocytes; format: cell-based, C57BL/6 mice; conditions: LPS 100 ng/ml, metformin 200 μM, FK506 100 nM, 3 days; vs control (LPS)
Method: (§2) Concentrations of TNF-α and IL-6 present in the resulting culture broth were measured to compare the drug effects (FIG. 10). Also, a concentration of immunoglobulins (IgG) present in the culture broth was measured in the same cell culture conditions to compare the drug effects (FIG. 11). The statistical analysis was carried out using a Graph prism (t-test, ANOVA), and the statistical significance was p<0.05.

IL-6 = IL-6 secreted by LPS-stimulated splenocytes; format: cell-based, C57BL/6 mice; conditions: LPS 100 ng/ml, metformin 200 μM, FK506 100 nM, 3 days; vs control (LPS)
Method: as §2

immunoglobulins (IgG) = immunoglobulins (IgG) secreted by LPS-stimulated splenocytes; format: cell-based, C57BL/6 mice; conditions: LPS 100 ng/ml, metformin 200 μM, FK506 100 nM, 3 days; vs control (LPS)
Method: as §2

[3] = test system: Splenocytes obtained from normal C57BL/6 mice; experiment: MTT assay under T cell activation conditions (anti-CD3); conditions: metformin 200 μM, FK506 100 nM, 3 days, anti-CD3 1 μg/ml; vs control (aCD3)
Method: Splenocytes obtained from normal C57BL/6 mice were seeded in a 96-well plate at a density of 2×10^5 cells/ml, treated with metformin (200 μM) or FK506 (100 nM) according to the experimental conditions, and then cultured for 3 days under anti-CD3 activation conditions (1 μg/ml). In the MTT assay, a 3-(4,5dimethyl-thiazol-2-yl)-2,5-diphenyltetrazolium bromide compound was added before 4 hours of cell harvesting, and reacted for 4 hours. Thereafter, each well was treated with DMSO to measure the optical density at a wavelength of 540 nm.

[4] = metformin 200 μM, FK506 1 nM or 100 nM, 3 days

Row | Structure (SMILES) | concentration at 4 weeks [1] [ng/mL] | proliferation of T cells ([3H]-thymidine uptake) [2, 4] | concentration of IFN-γ in the culture broth (IFN-γ; FK506 1 nM or 100 nM) | concentration of IL-17 in the culture broth (IL-17; FK506 1 nM or 100 nM) | Treg activity (ratio of Foxp3+CD25+ cells to CD4+ T cells) (Treg cells) | concentration of TNF-α in the culture broth (TNF-α) | concentration of IL-6 in the culture broth (IL-6) | concentration of immunoglobulins (IgG) in the culture broth (immunoglobulins (IgG)) | proliferation of T cells ([3H]-thymidine uptake) ([2]; Met 200 μM or 1,000 μM, CsA 10 nM or 100 nM, co-administered metformin 200 μM) | concentration of IFN-γ in the culture broth (IFN-γ; CsA 10 nM or 100 nM) | concentration of IL-17 in the culture broth (IL-17; CsA 10 nM or 100 nM) | cytotoxicity, optical density at 540 nm (MTT) [3] | Treg level/activity (ratio of Foxp3+CD25+ cells to CD4+ T cells) (Treg cells; metformin 1 mM, CsA 100 nM, anti-CD3)
1 | C=CC[C@@H]1/C=C(\C)C[C@H](C)C[C@H](OC)[C@H]2O[C@@](O)(C(=O)C(=O)N3CCCC[C@H]3C(=O)O[C@H](/C(C)=C/[C@@H]3CC[C@@H](O)[C@H](OC)C3)[C@H](C)[C@@H](O)CC1=O)[C@H](C)C[C@@H]2OC [FK506, Tacrolimus] | 10.2 ± 1.3 | remarkably reduced in a concentration-dependent manner | reduced | reduced | increased | not highly reduced | not highly reduced | not significantly changed | – | – | – | – | –
2 | CN(C)C(=N)NC(=N)N [metformin, Metformin] | – | suppressed | reduced | reduced | increased | not highly reduced | not highly reduced | not significantly changed | suppressed | reduced | reduced | no big difference in optical densities | increased
